From US7887822B2, “Peptides for stimulating an immune response against melanoma” (Health Research, Inc., priority 2005, dated 2011)
Where no end group is shown, it is not given here.

What was measured:
[1] = system: peptides PMK2-23H3, PHMW.D2.7 and anti-id mAb MK2-23; experiment: Immunogenicity in BALB/c mice: reactivity of sera in peptide binding ELISA; format: in vivo; conditions: peptide conjugated to KLH with Freund adjuvant; for Reactivity of sera from immunized mice with HMW-MAA-derived peptide PHMW.D2.7 / Reactivity of sera from immunized mice with peptide PMK2-23H3: s.c. day 0, 21, 42, sera day 7 and 28, ELISA
Procedure: (§1) FIGS. 4A and 4B are graphical depictions of the immunogenicity of peptide PMK2-23H3 in BALB/c mice. Sera harvested before immunization (circle) and on days 7 (square) and 28 (triangle) after immunization from BALB/c mice immunized with anti-id mAb-derived peptide PMK2-23H3 were tested for their reactivity in ELISA with the immunizing peptide (closed symbols, left panel of FIG. 4A) and with HMW-MAA-derived peptide PHMW.D2.7 (open symbols, right panel of FIG. 4A). Sera harvested before immunization (circles) and on day 28 (triangles) were tested in ELISA (left panel in FIG. 4B) with HMW-MAA-transfected M14#5 cells (closed symbols) and with their mock-transfected counterparts (open symbols, left panel in FIG. 4B). Sera harvested on day 28 were tested by FACS analysis (right panel in FIG. 4B, open profiles) with HMW-MAA-transfected M14#5 cells (M14#5/HMW) and with their mock-transfected counterparts (M14#5/neo). Preimmune sera (filled profile) were used as controls.
(§2) Immunizations were given subcutaneously to 8-week-old female BALB/c mice (obtained from Taconic Farms, Germantown, N.Y.) (5 per group) on day 0, 21, and 42. Sera were harvested before immunization and on day 7 and 28. They were tested for reactivity with the immunizing peptide coated on 96-well plates (Temponi, et al. (1989) Hybridoma. 8, 85-95) and with HMW-MAA-bearing melanoma cells in ELISA and fluorescence-activated cell sorting (FACS) analysis using conventional techniques as previously described (Chen, et al. (1991) J. Immunol. 147, 1082-1090).

mAb 763.74 = experiment: Inhibition by peptides of binding of biotinylated mAb 763.74 to HMW-MAA-bearing Colo38 melanoma cells; conditions: for Inhibition of binding of mAb 763.74 to HMW-MAA-bearing melanoma cells: Colo38 cells, escalating peptide concentrations, FIG. 3; for IC50 for inhibition of mAb 763.74 binding: biotinylated mAb 763.74 incubated with peptide at 4° C. overnight, then Colo38 cells 1 h at 4° C., read-out: Dissociation constant (Kd), molar concentration of the peptide required to cause a 50% inhibition of binding of biotinylated mAb 763.74 to Colo38 cells
Procedure: FIG. 3 is a graphical depiction of dose-dependent inhibition by anti-id mAb MK2-23H3-derived peptide PMK2-23H3 of binding of mAb 763.74 to HMW-MAA-bearing Colo38 melanoma cells. Peptides PHMW.D2.7 (HMW-MAA-derived), PMK2-23H3 (anti-id mAb MK2-23H3-derived), and an irrelevant control peptide Pb2m (β2-microglobulin-derived) at increasing concentrations were incubated with biotinylated mAb 763.74 (0.5 μg/ml) and assayed as described in Example 2. Results of one of three representative experiments are shown.
PMK2-23H3, PMK2-23L1, and PHMW-MAA.D2.7 were synthesized by N.C. Wang, Hospital for Sick Children, Toronto, ON, Canada. A synthetic peptide derived from β2-microglobulin (Pb2m, KNGERIEKVEHS SEQ ID NO:4), used as a negative control, was purchased from University of Georgia Molecular Genetics Instrumentation Facility (Athens, Ga.). mAb 763.74 was purified from ascitic fluid by sequential ammonium sulphate and caprylic acid precipitation (Temponi, et al. (1989) Hybridoma. 8, 85-95). The purity and activity of mAb preparations were assessed by SDS-PAGE and by testing with the corresponding antigen in a binding assay, respectively. Biotinylation was performed using NHS-LC-biotin (Pierce, Rockford, Ill.) according to the manufacturer's instructions.)
Escalating concentrations of peptides were incubated with biotinylated mAb 763.74 ([…]) at 4° C. overnight in U-bottom 96-well plates. The mixture was then incubated with HMW-MAA-bearing melanoma cells Colo38 (10^5/well) for 1 h at 4° C. After three washes with 1% bovine serum albumin in phosphate buffered saline, an optimal amount of horseradish peroxidase-conjugated streptavidin was added. Reactions were then developed and visualized with the TMB substrate system (KPL, Gaithersburg, Md.). Reactions were reported as optical density (O.D.) measured with an ELISA reader. Percent inhibition was calculated by the formula: 100%×(O.D.irrelevant peptide−O.D.test peptide)/O.D.irrelevant peptide. Dissociation constant (Kd) was calculated as the molar concentration of the peptide required to cause a 50% inhibition of binding of biotinylated mAb 763.74 to HMW-MAA-bearing melanoma cells Colo38 (Temponi, et al. (1992) Cancer Res. 52, 2497-2503).

[2] = system: HMW-MAA-transfected M14 melanoma cells; experiment: Immunogenicity in BALB/c mice: reactivity of sera with HMW-MAA-transfected and mock-transfected M14 melanoma cells in ELISA and FACS; format: in vivo; conditions: sera day 28; ELISA and FACS analysis
Procedure: as §1, with “Sera harvested on day 28 were tested by FACS analysis (right panel in FIG. 4B, open profiles) with HMW-MAA-transfected M14#5 cells (M14#5/HMW) and with their mock-transfected counterparts (M14#5/neo). Preimmune sera (filled profile) were used as controls.” left out
as §2, with “Sera were harvested before immunization and on day 7 and 28.” left out

[3] = Solubility of peptide, as noted for the peptide binding assays; format: physicochemical
Procedure: Peptide PMK2-23H3, which was based on the H3 loop of anti-id mAb MK2-23 encompassing the HMW-MAA-homologous amino acid sequence (FIG. 1) was analyzed for reactivity with the HMW-MAA-specific idiotypic mAb 763.74. […] The peptide SVEYYGSSLMQ (designated as PMK2-23L1), which was derived from the L1 loop of anti-id mAb MK2-23 encompassing the described HMW-MAA-homologous a.a. sequence, was also synthesized.

IC50 for inhibition of mAb 763.74 binding (mAb 763.74)	Solubility [3]	Sequence	Reactivity of sera from immunized mice with HMW-MAA-derived peptide PHMW.D2.7 [1]	Reactivity of sera from immunized mice with peptide PMK2-23H3 [1]	Reactivity of sera from immunized mice with anti-id mAb MK2-23 ([1]; s.c., peptide binding assay)	Inhibition of binding of mAb 763.74 to HMW-MAA-bearing melanoma cells (mAb 763.74)	Reactivity of sera from immunized mice with HMW-MAA-transfected M14 melanoma cells (M14.HMW-MAA) [2]	Reactivity of sera from immunized mice with mock-transfected M14 cells (M14.neo) [2]
871 nM	–	ARSNYVGYHVRWYFD [PMK2-23H3, identical to a portion of the H3 loop of anti-id mAb MK2-23]	reacted	reacted	reacted	inhibits the binding	reacted	did not react
900 nM	–	IRSGDEVHYHVTAGPRW [PHMW-MAA.D2.7, IRSGDEVHYHV TAGPRW, identical to a region of HMW-MAA with partial homology to the H3 loop of MK2-23]	–	–	–	–	–	–
–	–	KNGERIEKVEHS (human; Beta 2-microglobulin peptide) [Pb2m, reference compound]	no detectable reactivity	no detectable reactivity	–	no detectable effect	–	–
–	low solubility	SVEYYGSSLMQ [PMK2-23L1, SVEYYGSSLMQ]	–	–	–	–	–	–
